Assay results reported in patent publication US8173638B2 (Boehringer Ingelheim International GmbH, priority 2006, dated 2012).

biological target: T1, human CB2R (Homo sapiens, UniProt P34972); assay: CB2R mediated modulation of cAMP synthesis; format: cell-based; settings: not given
T1 construct: host or cells: CHO cells
Experimental: B. CB2R Mediated Modulation of cAMP Synthesis:
CHO cells expressing human CB2R (Euroscreen) were plated at a density of 5000 cells per well in 384 well plates and incubated overnight at 37° C. After removing the media, the cells were treated with test compounds diluted in stimulation buffer containing 1 mM IBMX, 0.25% BSA and 10 uM Forskolin. The assay was incubated for 30 minutes at 37° C. Cells were lysed and the cAMP concentration was measured using DiscoverX-XS cAMP kit, following the manufacturer's protocol. In this setting, agonists will decrease forskolin induced production of cAMP while inverse agonists will further increase forskolin induced production of cAMP. EC50 of agonists were calculated as follows. The maximal amount of cAMP produced by forskolin compared to the level of cAMP inhibited by 1 uM CP55940 is defined as 100%. […] Data was analyzed using a four-parameter logistic model. (Model 205 of XLfit 4.0).

T1 sequence (P34972 whole entry): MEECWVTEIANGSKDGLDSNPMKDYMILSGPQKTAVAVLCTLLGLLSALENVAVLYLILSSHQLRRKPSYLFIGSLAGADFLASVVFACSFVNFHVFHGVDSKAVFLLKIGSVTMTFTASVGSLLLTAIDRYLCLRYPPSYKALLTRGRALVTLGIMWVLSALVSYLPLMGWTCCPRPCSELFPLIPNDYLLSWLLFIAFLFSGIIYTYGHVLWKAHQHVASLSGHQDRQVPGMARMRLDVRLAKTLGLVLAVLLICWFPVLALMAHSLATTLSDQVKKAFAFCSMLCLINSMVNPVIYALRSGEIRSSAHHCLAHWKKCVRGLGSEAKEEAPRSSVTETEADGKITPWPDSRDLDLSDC

Row | Structure (SMILES) | EC50 [nM]
1 | CCC(C)c1ccc(NC(=O)N2CCCN(C(=O)CC3CCCC3)CC2)cc1 (stereo not drawn) [Compound 52, 4-(2-Cyclopentyl-acetyl)-[1,4]diazepane-1-carboxylic acid (4-sec-butyl-phenyl)-amide] | 7.1
2 | CC(C)(C)c1cc(NC(=O)N2CCCN(C(=O)N3CCC(F)(F)CC3)CC2)no1 [Compound 206, 4-(4,4-Difluoro-piperidine-1-carbonyl)-[1,4]diazepane-1-carboxylic acid (5-tert-butyl-isoxazol-3-yl)-amide] | 16

same assay, conditions: 0.5 h; CHO cells expressing human CB2R; cAMP inhibited by 1 uM CP55940 defined as 100%; read-out: Agonist Efficacy (%)

Row | Structure (SMILES) | Emax [%]
3 | CC(C)(C)c1cc(NC(=O)N2CCCN(C(=O)C3CCCCCC3)CC2)no1 [Compound 152, 4-Cycloheptanecarbonyl-[1,4]diazepane-1-carboxylic acid (5-tert-butyl-isoxazol-3-yl)-amide] | 104
4 | CC(C)c1ccc(NC(=O)N2CCCN(C(=O)CC3CCCCC3)CC2)cc1 [Compound 36, 4-(2-Cyclohexyl-acetyl)-[1,4]diazepane-1-carboxylic acid (4-isopropyl-phenyl)-amide] | 95
5 | Cc1sc(NC(=O)N2CCCN(C(=O)C3CCOCC3)CC2)nc1C(C)(C)C [Compound 186, 4-(Tetrahydro-pyran-4-carbonyl)-[1,4]diazepane-1-carboxylic acid (4-tert-butyl-5-methyl-thiazol-2-yl)-amide] | 91

same assay, conditions: CHO, 0.5 h, read-out: Agonist Efficacy (%)

Row | Structure (SMILES) | Emax [%]
6 | CCC(C)c1ccc(NC(=O)N2CCCN(C(=O)CC3CCCC3)CC2)cc1 (stereo not drawn) [Compound 52, 4-(2-Cyclopentyl-acetyl)-[1,4]diazepane-1-carboxylic acid (4-sec-butyl-phenyl)-amide] | 98
7 | CC(C)(C)c1cc(NC(=O)N2CCCN(C(=O)N3CCC(F)(F)CC3)CC2)no1 [Compound 206, 4-(4,4-Difluoro-piperidine-1-carbonyl)-[1,4]diazepane-1-carboxylic acid (5-tert-butyl-isoxazol-3-yl)-amide] | 105

same assay, conditions: found through the use of the described assays (CB2 agonists); qualitative statement

Row | Structure (SMILES) | agonistic activity
8 | CC(C)(C)c1ccc(NC(=O)N2CCCN(C(=O)c3cc(Cl)cc(Cl)c3)CC2)cc1 [4-(3,5-Dichloro-benzoyl)-[1,4]diazepane-1-carboxylic acid (4-tert-butyl-phenyl)-amide] | agonistic activity
9 | CC(C)(C)c1cc(NC(=O)N2CCCN(C(=O)CC3CCCC3)CC2)no1 [4-(2-Cyclopentyl-acetyl)-[1,4]diazepane-1-carboxylic acid (5-tert-butyl-isoxazol-3-yl)-amide] | agonistic activity
10 | CC(C)(C)c1cc(NC(=O)N2CCCN(C(=O)C3CCC(NS(C)(=O)=O)CC3)CC2)no1 (stereo not drawn) [4-(4-Methanesulfonylamino-cyclohexanecarbonyl)-[1,4]diazepane-1-carboxylic acid (5-tert-butyl-isoxazol-3-yl)-amide] | agonistic activity
11 | CC(C)(C)c1ccc(NC(=O)N2CCCN(C(=O)c3ccc(C#N)cc3)CC2)cc1 [4-(4-Cyano-benzoyl)-[1,4]diazepane-1-carboxylic acid (4-tert-butyl-phenyl)-amide] | agonistic activity
12 | Cc1onc(NC(=O)N2CCCN(C(=O)C3CCOCC3)CC2)c1C | agonistic activity
13 | CC(C)(C)c1cc(NC(=O)N2CCCN(C(=O)CC3CCCO3)CC2)no1 (stereo not drawn) [4-(2-Tetrahydro-furan-2-yl-acetyl)-[1,4]diazepane-1-carboxylic acid (5-tert-butyl-isoxazol-3-yl)-amide] | agonistic activity
14 | CC(C)(C)c1cc(NC(=O)N2CCCN(C(=O)Nc3ccccc3)CC2)no1 | agonistic activity
15 | CC(C)(C)c1cc(NC(=O)N2CCCN(C(=O)N3CCCOCC3)CC2)no1 [4-([1,4]Oxazepane-4-carbonyl)-[1,4]diazepane-1-carboxylic acid (5-tert-butyl-isoxazol-3-yl)-amide] | agonistic activity
16 | CCc1ccc(NC(=O)N2CCCN(C(=O)CCC3CCCC3)CC2)cc1 [4-(3-Cyclopentyl-propionyl)-[1,4]diazepane-1-carboxylic acid (4-ethyl-phenyl)-amide] | agonistic activity
17 | Cn1nc(-c2ccccc2)cc1NC(=O)N1CCCN(C(=O)C2CCOCC2)CC1 [4-(Tetrahydro-pyran-4-carbonyl)-[1,4]diazepane-1-carboxylic acid (2-methyl-5-phenyl-2H-pyrazol-3-yl)-amide] | agonistic activity
18 | CC(=O)NC1CCC(C(=O)N2CCCN(C(=O)Nc3cc(C(C)(C)C)on3)CC2)CC1 (stereo not drawn) [4-(4-Acetylamino-cyclohexanecarbonyl)-[1,4]diazepane-1-carboxylic acid (5-tert-butyl-isoxazol-3-yl)-amide] | agonistic activity
19 | CC(C)(C)c1cc(NC(=O)N2CCCN(C(=O)C3CCOCC3)CC2)no1 [4-(Tetrahydro-pyran-4-carbonyl)-[1,4]diazepane-1-carboxylic acid (5-tert-butyl-isoxazol-3-yl)-amide] | agonistic activity
20 | CC(=O)N1CCC(C(=O)N2CCCN(C(=O)Nc3cc(C(C)(C)C)on3)CC2)CC1 [4-(1-Acetyl-piperidine-4-carbonyl)-[1,4]diazepane-1-carboxylic acid (5-tert-butyl-isoxazol-3-yl)-amide] | agonistic activity
21 | CC(C)(C)c1cc(NC(=O)N2CCCN(C(=O)NC3CCOCC3)CC2)no1 | agonistic activity

The remaining lines, values ahead:

Row | agonistic activity | Structure (SMILES)
22 | agonistic activity | CCc1ccc(NC(=O)N2CCCN(C(=O)CC3CCOCC3)CC2)cc1 [4-(2-Tetrahydro-pyran-4-yl-acetyl)-[1,4]diazepane-1-carboxylic acid (4-ethyl-phenyl)-amide]
23 | agonistic activity | O=C(Nc1ccc(C(F)(F)F)cc1)N1CCCN(C(=O)c2ccc(F)cc2)CC1 [4-(4-Fluoro-benzoyl)-[1,4]diazepane-1-carboxylic acid (4-trifluoromethyl-phenyl)-amide]
24 | agonistic activity | O=C(CC1CCOCC1)N1CCCN(C(=O)Nc2cc(Cl)cc(Cl)c2)CC1 [4-(2-Tetrahydro-pyran-4-yl-acetyl)-[1,4]diazepane-1-carboxylic acid (3,5-dichloro-phenyl)-amide]
25 | agonistic activity | CCCCc1ccc(NC(=O)N2CCCN(C(=O)CC3CCCC3)CC2)cc1
26 | agonistic activity | CC(C)(C)c1cc(NC(=O)N2CCCN(C(=O)C3CCCC3)CC2)no1 [4-Cyclopentanecarbonyl-[1,4]diazepane-1-carboxylic acid (5-tert-butyl-isoxazol-3-yl)-amide]
27 | agonistic activity | O=C(CC1CCCC1)N1CCCN(C(=O)Nc2ccc3ccccc3c2)CC1 [4-(2-Cyclopentyl-acetyl)-[1,4]diazepane-1-carboxylic acid (2-naphthyl)-amide]
28 | agonistic activity | CCC(C)c1ccc(NC(=O)N2CCCN(C(=O)C3CCOCC3)CC2)cc1 (stereo not drawn) [4-(Tetrahydro-pyran-4-carbonyl)-[1,4]diazepane-1-carboxylic acid (4-sec-butyl-phenyl)-amide]
29 | agonistic activity | O=C(CC1CCCC1)N1CCCN(C(=O)Nc2ccc(SC(F)(F)F)cc2)CC1 [4-(2-cyclopentyl-acetyl)-[1,4]diazepane-1-carboxylic acid (4-trifluoromethylsulfanyl-phenyl)-amide]
30 | agonistic activity | CC(C)(C)c1ccc(NC(=O)N2CCCN(C(=O)N3CCS(=O)(=O)CC3)CC2)cc1 [4-(1,1-Dioxo-1λ^6-thiomorpholine-4-carbonyl)-[1,4]diazepane-1-carboxylic acid (4-tert-butyl-phenyl)-amide]
31 | agonistic activity | O=C(Nc1ccc(C(F)(F)F)cc1)N1CCCN(C(=O)C2CCC(F)(F)CC2)CC1 [4-(4,4-Difluoro-cyclohexanecarbonyl)-[1,4]diazepane-1-carboxylic acid (4-trifluoromethyl-phenyl)-amide]
32 | agonistic activity | O=C(CC1CCOCC1)N1CCCN(C(=O)Nc2ccc3ccccc3c2)CC1 [4-(2-Tetrahydro-pyran-4-yl-acetyl)-[1,4]diazepane-1-carboxylic acid (2-naphthyl)-amide]
33 | agonistic activity | CC(c1ccc(NC(=O)N2CCCN(C(=O)C3CCOCC3)CC2)cc1)C(F)(F)F (stereo not drawn) [4-(Tetrahydro-pyran-4-carbonyl)-[1,4]diazepane-1-carboxylic acid [4-(2,2,2-trifluoro-1-methyl-ethyl)-phenyl]-amide]
34 | agonistic activity | CCCCCc1ccc(NC(=O)N2CCCN(C(=O)CC3CCCC3)CC2)cc1 [4-(2-Cyclopentyl-acetyl)-[1,4]diazepane-1-carboxylic acid (4-n-pentyl-phenyl)-amide]
35 | agonistic activity | CC(C)c1ccc(NC(=O)N2CCCN(C(=O)CCC(F)(F)F)CC2)cc1 [4-(4,4,4-Trifluoro-butyryl)-[1,4]diazepane-1-carboxylic acid (4-isopropyl-phenyl)-amide]
36 | agonistic activity | CC(C)(C)c1ccc(NC(=O)N2CCCN(C(=O)CCC3CC3)CC2)cc1 [4-(3-Cyclopropyl-propionyl)-[1,4]diazepane-1-carboxylic acid (4-tert-butyl-phenyl)-amide]
37 | agonistic activity | CC(C)(C)c1ccc(NC(=O)N2CCCN(C(=O)CC3CCOCC3)CC2)cc1 [4-(2-Tetrahydro-pyran-4-yl-acetyl)-[1,4]diazepane-1-carboxylic acid (4-tert-butyl-phenyl)-amide]
38 | agonistic activity | CC(C)(C)c1ccc(NC(=O)N2CCCN(C(=O)CCC(F)(F)F)CC2)cc1 [4-(4,4,4-Trifluoro-butyryl)-[1,4]diazepane-1-carboxylic acid (4-tert-butyl-phenyl)-amide]
39 | agonistic activity | CC(C)(C)c1cc(NC(=O)N2CCCN(C(=O)C3CCCCC3)CC2)no1 [4-Cyclohexanecarbonyl-[1,4]diazepane-1-carboxylic acid (5-tert-butyl-isoxazol-3-yl)-amide]

same assay, conditions: read-out: hCB2 cAMP EC50

Row | Structure (SMILES) | EC50 [nM]
40 | CC(C)(C)c1cc(NC(=O)N2CCCN(C(=O)C3CCCCCC3)CC2)no1 [Compound 152, 4-Cycloheptanecarbonyl-[1,4]diazepane-1-carboxylic acid (5-tert-butyl-isoxazol-3-yl)-amide] | 19
41 | CC(C)c1ccc(NC(=O)N2CCCN(C(=O)CC3CCCCC3)CC2)cc1 [Compound 36, 4-(2-Cyclohexyl-acetyl)-[1,4]diazepane-1-carboxylic acid (4-isopropyl-phenyl)-amide] | 29
42 | Cc1sc(NC(=O)N2CCCN(C(=O)C3CCOCC3)CC2)nc1C(C)(C)C [Compound 186, 4-(Tetrahydro-pyran-4-carbonyl)-[1,4]diazepane-1-carboxylic acid (4-tert-butyl-5-methyl-thiazol-2-yl)-amide] | 58
